From patent US20260023070A1, “OPTOGENETIC ALPHA-SYNUCLEIN AGGREGATION SYSTEM-BASED COMPOUND SCREENING PLATFORM IN PD-hiPSC-mDA NEURONS” (The Johns Hopkins University, priority 2022, published 2026)

Columns and labels:
[1] = test system: α-syn PFF injected mice; assay: In vivo intrastriatal α-syn PFF mouse model, oral BAG 956 (behaviour, histology, biochemistry); settings: short-term: two months at 2 mg/kg or one month at 10 mg/kg after intrastriatal α-syn PFF injection
[2] = test system: human PD iPSC-derived mDA neurons treated with α-syn PFF; assay: α-syn PFF model in non-OASIS human PD hiPSC-derived mDA neurons (TX-insoluble pS129-α-syn); type: cell-based; settings: α-syn PFF with compound for 14 days
Protocol: To validate the effects of these two compounds on the OASIS-independent model, α-syn PFF were treated with mouse primary neurons and non-OASIS-human PD hiPSC-derived mDA neurons with CDC 021 and BAG 956.

[3] = test system: opto-α-syn PD hiPSC-derived mDA neurons; assay: Light-induced α-syn aggregation and neurotoxicity in opto-α-syn PD hiPSC-derived mDA neurons; type: cell-based, human; settings: blue light 7 days; compared to DMSO control; significant at 1 and 10 nM CDC, 10 and 100 nM BAG
Protocol: Whether these potential hit compounds can inhibit α-syn aggregation and rescue aggregation-induced neuronal toxicity was tested on PD hiPSC-derived mDA neurons. The top 5 ranked small compounds in FIGURE SE were selected and these compounds to were used to treat opto-α-syn PD hiPSC-derived mDA neurons at three different concentrations (1 nM, 10 nM, 100 nM) with blue light stimulation. […] Overall, the two compounds were finally selected among the potential hit drugs from our novel opto-α-syn neuronal cell model-based primary screening (FIG. 11D), and they considerably rescued neuronal cell death from aggregation-induced TH^+ mDA neuron-selective toxicity in PD-iPSC derived neurons. To identify possible molecules involved in this compound-mediated recovery of TH^+ mDA neurons, RNA-sequencing (RNA-seq) analysis was performed with four different samples (dark condition with DMSO, blue light stimulation with DMSO, blue light stimulation with BAG treatment, and blue light stimulation with CDC treatment). To find BAG- or CDC-responsive genes, differentially expressed genes (DEGs) of DMSO-treated samples upon blue light stimulation were first extracted, and then the DEGs were filtered with criteria of which became non-DEGs in response to CDC or BAG treatment. […]
The effect of 5 selected compounds on opto-α-syn-expressing PD hiPSC-derived mDA neurons was evaluated. […]

[4] = test system: PI3K-PDK1/AKT/mTOR signaling pathway; assay: PI3K/PDK1 downstream target phosphorylation in ventral midbrain of α-syn PFF-injected mice; type: in vivo, mouse
Source text: Since PI3K-PDK1/AKT/mTOR signaling pathway plays a critical role in regulation of autophagy, it was investigated the effects of BAG 956 treatments on PFF models. […] Taken together, BAG 956 may act as an autophagy-enhancing drug through inhibition of the PI3K-PDK1/AKT/mTOR signaling pathway (FIG. 18I).

[5] = test system: tau PFF treated mouse cortical neurons; assay: tau PFF treated mouse cortical neurons, p-Tau western blot; type: cell-based
Protocol: It was tested whether the BAG956 compound can be beneficial in other proteinopathy models. The BAG and CDC compounds were used on the tau PFF treated mouse […] neurons (FIGS. 15A-15D) and measured expression levels with three different phosphorylated-Tau (p-Tau) antibodies.

For `Cc1nc2cnc3ccc(C#Cc4cccnc4)cc3c2n1-c1ccc(C(C)(C)C#N)cc1` [BAG 956], the “pathologic pS129-α-syn immunoreactivity in TH neurons of the ventral midbrain” value [1] was “significantly reduced”, the “TX-insoluble pS129-α-syn” value [2] was “significant decrease” and the “survival rate of TH+ mDA neurons” value [3] was “significant increase”. For the same compound, the pS473-AKT ([4]; α-syn PFF injected mice, normalized to pan-AKT) was “reduced”, the “Phosphorylation of PDK1 downstream targets PI3K, AKT, S6K, and mTOR” value ([4]; α-syn PFF-injected mice, 2 mg/kg or 10 mg/kg) was “significantly reduced” and the “all three forms of p-Tau (AT8, AT180, Tau-217)” value [5] was “significantly downregulated”.
